Laboratory results reported in article PMC6111308, “Antimycobacterial, Enzyme Inhibition, and Molecular Interaction Studies of Psoromic Acid in Mycobacterium tuberculosis: Efficacy and Safety Investigations” (Journal of Clinical Medicine, 2018).

Target: T1, arylamine-N-acetyltransferase (TBNAT) (Mycobacterium tuberculosis, UniProt P9WJI5)
T1 construct: gene nat
T1 sequence (P9WJI5 1-283): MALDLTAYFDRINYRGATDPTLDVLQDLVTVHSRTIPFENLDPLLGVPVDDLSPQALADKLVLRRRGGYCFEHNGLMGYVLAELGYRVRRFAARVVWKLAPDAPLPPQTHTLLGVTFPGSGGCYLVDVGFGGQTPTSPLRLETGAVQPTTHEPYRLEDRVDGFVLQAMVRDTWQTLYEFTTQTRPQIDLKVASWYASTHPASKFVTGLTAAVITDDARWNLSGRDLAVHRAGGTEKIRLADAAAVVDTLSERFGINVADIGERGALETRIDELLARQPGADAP
Experiment: biochemical

NNC(=O)c1ccncc1 [INH, isoniazid]
IC50: 6.2 µM

COc1cc(C(=O)O)c2c(c1C)OC(=O)c1c(C)cc(O)c(C=O)c1O2 [PA, psoromic acid]
IC50: 8.7 µM
